This note sets out measurements from patent US20110130357A1 (priority 2008, published 2011).

≈ marks a conversion by molar mass, not a printed value.

One series concerns screened fungi. The experiment in a line: MIC against screened fungi (all species). The format is cell-based.
Series [1] deals with F. graminearum. The format is cell-based, Fusarium graminearum. To be noted: for lethality to F. graminearum: in the range of 500 to 1 μg/mL.
For series [2], the system named is F. graminearum isolate B-4-5A. The format is in vivo, Fusarium graminearum on wheat (Alsen and Frontana cultivars). The following applies: 30 μg/mL aminoglycoside mixed in inoculum, wheat leaves.
For series [3], the system named is Enterococcus faecalis (ATCC29212). The format is cell-based. To be noted: 35° C., 12-18 hrs.
In series [4] the test system is Klebsiella pneumoniae (ATCC 138883). Type of series: cell-based. To be noted: 35° C., 12-18 hrs.
The next series concerns wheat seedlings. The following applies: in vivo.
Series [5] relates to Escherichia coli TG1 (pET28a). Type of series: cell-based. The following applies: 35° C., 12-18 hrs.
The next series relates to Fusarium oxysporium. The experiment in a line: MIC against screened fungi.
In the next series the test system is Ulocladium sp. As to the kind of experiment: MIC against screened fungi.
For series [6], the system named is Staphylococcus aureus ATCC 25923. The format is cell-based. The following applies: 35° C., 12-18 hrs.
The subject of series [7] is Pseudomonas aeruginosa (ATCC 27853). The format is cell-based. The following applies: 35° C., 12-18 hrs.
Series [8] deals with F. graminearum. The format is cell-based, Fusarium graminearum. The following applies: PDB+casamino acids containing 0.02, 0.08 or 0.2% (v/v) surfactant.
Series [9] deals with selected bacterial pathogens. The experiment in a line: Antibacterial MIC over the selected bacterial pathogens. Type of series: cell-based. The following applies: read-out: Corresponding MIC values (span over the tested bacteria). The procedure: The minimum inhibitory concentration of M038 was determined for selected bacterial pathogens. For purposes of the experiments discussed in this paragraph, the minimum inhibitory concentration (MIC) is defined as the minimum concentration of compound needed to inhibit the growth of bacteria. A solution of selected bacteria was inoculated Trypticase Soy broth at 35° C. and incubated for 1-2 hours. Following incubation, the bacterial concentrations were determined, and diluted with broth, if necessary, to an absorption value of 0.08 to 0.1 at 625 nm. The adjusted inoculated medium (100 μL) was diluted with 10 ml broth, and then applied to a 96-well microtiter plate (50 μL). A series of solutions (50 μL each in 2-fold dilution) of M038 was added to the testing wells. The 96-well plate was incubated at 35° C. for 12-18 hrs. The MIC results were repeated at least three times.

`CCCCCCCCO[C@H]1[C@H](O)[C@@H](O)[C@@H](O[C@@H]2[C@@H](O)[C@H](O[C@H]3O[C@H](CN)[C@@H](O)[C@H](O)[C@H]3N)[C@@H](N)C[C@H]2N)O[C@@H]1C` [JL038, 6-O-(6-Deoxy-4-O-n-octyl-α-D-glucopyranosyl)neamine]: the “MICs for all species of screened fungi” value in the series with screened fungi (all screened fungi) is at most 31.3 µg/mL. The “MIC (MIC90, concentration required to inhibit 90% of the growth or more)” value with F. graminearum [1] (PDB+casamino acids, 24° C., 72 h, tested range 500 to 1 μg/mL) stood at 31.3 µg/mL. In [2], the “lesion development / leaf infection by F. graminearum” value (from here on “lesion development / leaf infection”) is listed as “prevents lesion development”. The “Minimal inhibitory concentration (MIC)” value in [3] is 125-250 μ/mL; in series [4] it was 250 μ/mL; in series [5] it was 125-250 μ/mL; in [6] it was 250 μ/mL; in series [7], 250 µg/mL (≈ 431 µM). The “chlorophyll damage (relative chlorophyll content)” value with wheat seedlings is “no chlorophyll damages”. Also, the phytotoxicity entry in the series on wheat seedlings is “no phytotoxicity”. In addition, the “phytotoxicity (chlorosis in the absence of fungal growth)” value in the series with wheat seedlings was “showed phytotoxicity”. Besides, the “phytotoxicity (relative chlorophyll content)” value with wheat seedlings is listed as “phytotoxic”. Further, the MIC against Fusarium oxysporium and with Ulocladium sp. was 7.8 µg/mL (≈ 13.4 µM) each time. For the same molecule, the “effect of surfactant on in vitro activity (MIC)” value (“effect of surfactant” below) in the series on F. graminearum [8] is listed as “did not affect”.

As to `NCC1O[C@H](OC2C(N)CC(N)[C@@H](OC3OCC(O)[C@@H](O)[C@H]3O)[C@H]2O)C(N)[C@@H](O)[C@@H]1O` (stereo partly drawn) [JL39], in the series on F. graminearum [1], the “lethality to F. graminearum” value is given as “not lethal”.

Regarding `NCC1O[C@H](OC2C(N)CC(N)[C@@H](OC3OCC(O)[C@@H](N)[C@H]3O)[C@H]2O)C(N)[C@@H](O)[C@@H]1O` (stereo partly drawn) [JL40, reference compound], the “lesion development / leaf infection” value in [2] was “did not prevent leaf infection”. In the series with wheat seedlings, the phytotoxicity entry was “phytotoxic” and the “phytotoxicity (relative chlorophyll content)” value is “phytotoxic”. The “effect of surfactant” value with F. graminearum [8] is “did not affect”.

Take `NCC1O[C@H](OC2C(N)CC(N)[C@@H](OC3O[C@H](CO)C(O)[C@@H](N)[C@H]3O)[C@H]2O)C(O)[C@@H](O)[C@@H]1O` (stereo partly drawn) [kanamycin A, Kanamycin A]: in the series with F. graminearum [1], the “lethality to F. graminearum” value was “not lethal”.

Consider `NC[C@H]1O[C@H](O[C@H]2[C@H](O)[C@@H](O[C@H]3O[C@H](CO)[C@@H](O)[C@H](N)[C@H]3O)[C@H](N)C[C@@H]2N)[C@H](N)[C@@H](O)[C@@H]1O` [kanamycin B, Kanamycin B, reference compound], for which the “antifungal effectiveness against screened fungi” value in the series with screened fungi (screened fungi of Table 2) is “substantially ineffective”. In series [2], the “lesion development / leaf infection” value was “did not prevent leaf infection”. Besides, in the series on wheat seedlings, the phytotoxicity entry was “phytotoxic” and the “phytotoxicity (relative chlorophyll content)” value was “phytotoxic”. Further, in the series on F. graminearum [8], the “effect of surfactant” value is “did not affect”. The MIC in series [9] was in the range of 980 to 1950 µg/mL (≈ 2030 to 4030 µM).

A word on the MIC: it is the least concentration at which growth counts as inhibited.
